Legend:
HMG-CoA reductase [1] = target: T1, HMG-CoA reductase (Rattus norvegicus, UniProt P51639); test: inhibition of HMG-CoA reductase activity on solubilized enzyme preparations from rat liver microsomes; assay type: biochemical; settings: solubilized rat liver microsomal enzyme; mean of 3 parallel samples; optically pure compounds
T1 sequence (P51639 1-887): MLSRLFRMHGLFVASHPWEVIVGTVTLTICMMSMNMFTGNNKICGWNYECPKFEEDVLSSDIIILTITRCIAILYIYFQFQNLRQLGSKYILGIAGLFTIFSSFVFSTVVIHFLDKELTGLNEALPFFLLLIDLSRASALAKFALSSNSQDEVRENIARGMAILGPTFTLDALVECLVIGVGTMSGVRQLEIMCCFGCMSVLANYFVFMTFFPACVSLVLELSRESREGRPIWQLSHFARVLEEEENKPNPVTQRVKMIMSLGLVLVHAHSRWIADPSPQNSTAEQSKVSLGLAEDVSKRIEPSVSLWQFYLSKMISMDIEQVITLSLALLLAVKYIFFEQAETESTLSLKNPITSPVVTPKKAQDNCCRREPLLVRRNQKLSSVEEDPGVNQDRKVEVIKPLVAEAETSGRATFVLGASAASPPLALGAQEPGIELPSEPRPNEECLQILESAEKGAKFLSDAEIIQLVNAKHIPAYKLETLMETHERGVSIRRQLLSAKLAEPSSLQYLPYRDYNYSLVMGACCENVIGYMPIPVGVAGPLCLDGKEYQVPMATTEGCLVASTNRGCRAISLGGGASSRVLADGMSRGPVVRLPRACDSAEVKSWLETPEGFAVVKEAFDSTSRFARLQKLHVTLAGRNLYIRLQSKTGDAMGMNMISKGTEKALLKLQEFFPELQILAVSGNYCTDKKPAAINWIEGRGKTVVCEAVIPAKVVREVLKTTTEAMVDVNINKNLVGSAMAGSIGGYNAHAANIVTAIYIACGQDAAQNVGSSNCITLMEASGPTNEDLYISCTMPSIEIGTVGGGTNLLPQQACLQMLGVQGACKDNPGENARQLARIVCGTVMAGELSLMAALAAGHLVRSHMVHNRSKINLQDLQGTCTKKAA

[2] = test system: cholesterol biosynthesis in HEP G2 cells; test: inhibition of cholesterol biosynthesis in HEP G2 cell cultures by incorporation of 14C-precursor (14C-acetate) in cholesterol; assay type: cell-based; settings: Homo sapiens, HepG2, 1 hour preincubation, 3 hours with 14C-acetate
Protocol: In addition, the inhibition of cholesterol biosynthesis in cell cultures was tested with selected compounds by the incorporation of ^14 C-precursor in cholesterol.
Monolayers of HEP G2 cells in Lipoprotein-free nutrient medium were incubated with various concentrations of the test substances for 1 hour. After addition of the ^14 C-labeled precursor sodium ^14 C-acetate, the incubation was continued for 3 hours. Then ^3 H-cholesterol was added as internal standard, and some of the cells were hydrolyzed with alkali. The lipids were extracted from the hydrolyzed cells using chloroform/methanol. Carrier cholesterol was added to this lipid mixture which was then subjected to preparative thin-layer chromatography, the cholesterol band was visualized with iodine vapor and then isolated, and the amount of ^14 C-cholesterol formed from the ^14 C-precursor was determined by scintigraphy. Cellular protein was determined in an aliquot of the cells, so that it is possible to calculate the amount of ^14 C-cholesterol formed from the ^14 C-precursor per mg of cellular protein in unit time. The solvent control is used for comparison with the inhibitory effect of an added test product, so that the inhibition of cholesterol biosynthesis at a particular molar concentration of the test product in the medium can be stated. The absence of cell damage due to the action of the products was confirmed in an aliquot of the cell culture by the morphology (light microscope). The IC50 values of the test products are stated in mol/l (in Table II), and their relative potencies are compared with mevinolin sodium salt and mevinolin lactone (comparison of the IC50 values).

liver enzyme levels = liver enzyme levels in the rabbit test; assay type: in vivo; settings: 10 mg/kg/day by gavage; rabbits
Protocol: (§1) The cholesterol-lowering efficacy was investigated in the following test on rabbits Normolipidemic male New Zealand rabbits (weight 3-3.5 kg, 4-6 animals per test group) received the test compounds suspended in a 1% strength aqueous carboxymethylcellulose solution (®Tylose) by gavage each day in the morning; the control group received only Tylose solution. Venous blood was taken every 3 to 4 days 20 hours after the oral administration of the solutions. The total cholesterol content in these samples was determined enzymatically using the Boehringer Mannheim assay kit (CHOD-PAP-high performance method). The serum cholesterol level in the group treated with test compounds was compared with that in the control group. The treatment period was followed by a period in which the test compounds were no longer administered.
The serum cholesterol levels returned to their initial value within 3 days after discontinuation of the product (after 10 days).

total serum cholesterol = test: cholesterol-lowering efficacy in normolipidemic male New Zealand rabbits; assay type: in vivo, rabbit
Protocol: as §1

HMG-CoA reductase [3] = settings: Endo et al. 1976; Brown et al. 1976; cited from earlier work

| SMILES | IC50 (HMG-CoA reductase [1]) | IC50 [2] | also measured |
| --- | --- | --- | --- |
| CC(C)c1nc(-c2ccccc2)cc(-c2ccc(F)cc2)c1/C=C/[C@@H](O)[C@H](F)[C@@H](O)CC(=O)O | 0.0085 µM | – | – |
| CC(C)c1nc(-c2ccccc2)cc(-c2ccc(F)cc2)c1CC[C@@H](O)[C@@H](F)[C@@H](O)CC(=O)O | 0.02 µM | – | – |
| CC(C)c1nc(-c2ccccc2)nc(-c2ccc(F)cc2)c1/C=C/[C@@H](O)[C@H](F)[C@@H](O)CC(=O)O | 0.036 µM | – | – |
| CC(C)c1cc(-c2ccccc2)cc(-c2ccc(F)cc2)c1/C=C/[C@@H](O)[C@H](F)[C@@H](O)CC(=O)O | 0.0063 µM | – | – |
| Cc1cc(C)c(/C=C/[C@@H](O)[C@H](F)[C@@H](O)CC(=O)O)c(-c2ccc(F)cc2)c1 | 0.098 µM | – | – |
| O=C1C[C@H](O)[C@@H](F)[C@@H](CSc2c(Cl)cc(Cl)cc2C(c2ccc(F)cc2)c2ccc(F)cc2)O1 [Example 12, 6-(2,4-Dichloro-6-(bisparafluorophenylmethyl)phenylthio)-3(R),5(S)-dihydroxy-4(R)-fluorohexanoic acid lactone] | 2 µM | 5.5 µM | – |
| CCCCc1cc(Cl)cc(Cl)c1/C=C/[C@H]1OC(=O)C[C@H](O)[C@H]1F [Example 18, 7-(2-n-Butyl-4,6-dichlorophenyl)-3(S),5(R)-dihydroxy-4(R)-fluoro-E-hept-6-enoic acid lactone] | 0.032 µM | 0.32 µM | – |
| CC(C)c1nc(-c2ccccc2)cc(-c2ccc(F)cc2)c1/C=C/[C@H]1OC(=O)C[C@H](O)[C@H]1F [Example 34, 3(S),5(R)-Dihydorxy-4(R)-fluoro-7-(2-isopropyl-4-parafluorophenyl-6-phenyl-3-pyridyl)hept-6E-enoic acid lactone] | – | 0.11 µM | changes in the liver enzyme levels (liver enzyme levels): without eliciting abnormal or pathological changes in the liver enzyme levels; time within which the 40% lowering of total cholesterol was reached (total serum cholesterol; 10 mg/kg/day by gavage): ≤ 3 days; lowering of total cholesterol (total serum cholesterol; 10 mg/kg/day by gavage in 1% carboxymethylcellulose, within 3 days, vs control group): 40%; course of total cholesterol lowering during administration (total serum cholesterol; 10 mg/kg/day by gavage, 10 days): remained constant throughout the administration; time for serum cholesterol levels to return to initial value after discontinuation (total serum cholesterol; 10 mg/kg/day by gavage, discontinuation after 10 days): ≤ 3 days |
| CC(C)c1nc(-c2ccccc2)nc(-c2ccc(F)cc2)c1/C=C/[C@H]1OC(=O)C[C@H](O)[C@H]1F [Example 38, 3(S),5(R)-dihydroxy-4(R)-fluoro-7-[6-parafluorophenyl-4-isopropyl-2-phenyl-1,3-diazin-5-yl]hept-6E-enoic acid lactone] | – | 0.25 µM | – |
| CC[C@H](C)C(=O)O[C@H]1CCC=C2C=C[C@H](C)[C@H](CC[C@@H]3C[C@@H](O)CC(=O)O3)[C@H]21 [compactin] | – | – | inhibition of HMG-CoA reductase (in words) (HMG-CoA reductase [3]): potent competitive inhibitor of HMG-CoA reductase |

From patent US4898868A, “3-demethyl-4-fluoromevalonic acid derivatives, a process for the preparation thereof, pharmaceutical products based on these compounds, the use thereof, and intermediates” (Hoechst Aktiengesellschaft, priority 1987, dated 1990)
